# Publication PMC8406298, “Discovery of Fungus-Specific Targets and Inhibitors Using Chemical Phenotyping of Pathogenic Spore Germination” (mBio, 2021)
# How the values were obtained:
# [1] = tested on: normal human dermal fibroblasts (NHDF) cells; test: Fibroblast cytotoxicity (CellTiter-Glo); type: cell-based; settings: 10 µM
# Method in brief: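 Normal human dermal fibroblasts, 1 × 10^3 per well, exposed to compounds at 10 μM for 72 h at 37°C. Viability read as ATP-dependent CellTiter-Glo luminescence. Dose-response runs titrated compounds from 80 μM to 0.5 μM in duplicate.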
# [2] = tested on: Cryptococcus yeast (CHY3833 and CHY3836); test: Yeast replication secondary screen (OD600); type: cell-based, Cryptococcus neoformans serotype D (deneoformans); settings: 10 μM, 12 h at 30°C
# Experimental: (ii) Yeast replication. CHY3833 and CHY3836 were each grown in YPD liquid overnight at 30°C to saturation and then resuspended in 0.5× YPD at an OD600 of 0.005. Strains were aliquoted into 384-well plates with inhibitors and grown for 12 h at 30°C at […] before OD600 readings were taken. Compounds that caused a >10% decrease in growth were considered yeast growth inhibitors.
SMILES,Cytotoxicity: Relative Cell Viability (% of Negative Control) [1],Yeast Inhibition: % Inhibition [2] [%]
O=C(COc1ccc2ccccc2c1)NCC1COC2(CCCC2)O1 (stereo not shown) [compound 16823609],99.9 % of Negative Control,2.4
CSC1=Nc2cccnc2Nc2ccccc21 [compound 16824016],94.9 % of Negative Control,20.9
Cc1cccc(NC(=O)CC2SC(=O)N(c3ccc(F)cc3)C2=O)c1 (stereo not shown) [compound 16876071],86.9 % of Negative Control,58.1
COC(=O)Nc1nc(CC(=O)N2CCN(c3cccc(Cl)c3Cl)CC2)cs1 [compound 16883840],62.6 % of Negative Control,3.5
COc1ccc2nc(NS(=O)(=O)c3ccc(Cl)s3)sc2c1 [compound 16934153],76.4 % of Negative Control,-7.4
O=S(=O)(Nc1nc2c(Cl)cccc2s1)c1ccc(Cl)s1 [compound 16934160],75.3 % of Negative Control,-6.1
O=S(=O)(Nc1nc2c(F)cccc2s1)c1ccc(Cl)s1 [compound 16934170],77.5 % of Negative Control,-6.6
O=C(Cn1c(=O)n(Cc2cccnc2)c(=O)c2ncccc21)Nc1ccc2c(c1)OCO2 [compound 16951905],101.3 % of Negative Control,-5.5
O=C(Cn1c(=O)n(Cc2ccncc2)c(=O)c2ncccc21)Nc1ccc(F)c(Cl)c1 [compound 16951979],102.8 % of Negative Control,27.1
Cc1ccccc1N=c1scc(-c2ccc(F)cc2)n1CCO [compound 16955786],85.9 % of Negative Control,21.9
Fc1ccc(Nc2ccnc3ccc(Cl)cc23)c(F)c1 [compound 17016619],67.9 % of Negative Control,34.0
CCn1c(SC/C=C\c2ccccc2)nnc1-c1ccncc1 [compound 18558862],88.2 % of Negative Control,36.7
COC(=O)c1ccc(Cn2c(S(C)(=O)=O)nc3ccccc32)cc1 [compound 18576765],88.5 % of Negative Control,3.8
O=C(CCSc1ccc(Cl)cc1)Nc1ccc2scnc2c1 [compound 18585549],96.1 % of Negative Control,29.1
COc1ccc(SCCCC(=O)Nc2ncnc3sccc23)cc1 [compound 18585630],104.7 % of Negative Control,15.2
CC1CNc2ccccc2N(Cc2ccc(Br)cc2)C1=O (stereo not shown) [compound 20896311],94.5 % of Negative Control,5.6
Cc1oc2cc(OCCN3CCN(c4ccccc4F)CC3)ccc2c(=O)c1-c1ccccc1 [compound 24280258],103.4 % of Negative Control,7.5
Cc1cc(-c2nnc(NC(=O)c3ccc(C(=O)c4ccccc4)cc3)o2)nn1C [compound 25283140],79.9 % of Negative Control,-15.6
CCCC(CCC)C(=O)N1CCN(c2ccc(-c3cccnc3)nn2)CC1 [compound 25283686],103.7 % of Negative Control,2.8
Cc1ccn(-c2ccc(N3CCN(C(=O)c4ccccc4Br)CC3)nn2)n1 [compound 25667819],101.9 % of Negative Control,-7.4
Cc1cc(NC(=O)c2cccc(Oc3ccccc3)c2)on1 [compound 25813521],105.8 % of Negative Control,19.4
CN1C(=O)c2cccc(NC(=O)c3ccnn3C)c2C1=O [compound 25835862],104.6 % of Negative Control,41.6
COc1ccc(-c2noc(CSc3nc4ccsc4c(=O)n3C)n2)cc1 [compound 27373469],109.3 % of Negative Control,33.0
Cc1ccccc1CSc1n[nH]c(=O)c2cc(-c3ccco3)nn12 [compound 27373907],97.6 % of Negative Control,49.7

SMILES,Cytotoxicity: Relative Cell Viability (% of Negative Control) [1],Yeast Inhibition: % Inhibition [2] [%]
COc1ccc(-c2noc(-c3cc(-c4cc(C)ccc4C)n[nH]3)n2)cc1OC [compound 27375613],94.0 % of Negative Control,9.4
Cc1nc(C)c(C(=O)NCCn2ncc3c(N4CCN(Cc5ccccc5)CC4)ncnc32)s1 [compound 27460748],112.9 % of Negative Control,22.5
O=C(NC1CCCC1)c1csc(Nc2ccccc2)n1 [compound 30860168],93.7 % of Negative Control,82.0
O=C(NCCOc1ccc(F)cc1)c1ccc(C(F)(F)F)cc1 [compound 30865811],100.1 % of Negative Control,68.2
Cc1nc(Oc2ccccc2)cc(N2CCN(C(=O)/C=C/c3ccccc3)CC2)n1 [compound 42065409],90.0 % of Negative Control,15.5
Cc1nc(C)c(C(=O)NCCn2ncc3c(N4CCN(c5ccc(F)cc5)CC4)ncnc32)s1 [compound 42099839],79.3 % of Negative Control,43.6
O=S(=O)(NCCN1CCN(c2ccc(Cl)cc2)CC1)c1ccc(Cl)s1 [compound 42268033],102.4 % of Negative Control,19.1
Nc1nc(Cl)cc(Nc2cccc(C(F)(F)F)c2)n1 [compound 42589452],51.8 % of Negative Control,100.9
OC(COc1ccc(Br)cc1Br)CN1CCc2ccccc2C1 (stereo not shown) [compound 43842355],28.9 % of Negative Control,76.5
O=C(C1CCC1)N(Cc1cccnc1)c1nc2ccc(Cl)cc2s1 [compound 43967671],97.1 % of Negative Control,78.9
Cc1cc(-c2nnc(NC(=O)C3Oc4ccccc4OC3C)o2)n(C)n1 (stereo not shown) [compound 44070699],97.2 % of Negative Control,-15.7
CCCc1cc(=O)[nH]c(-n2nc(C)cc2C)n1 [compound 44116743],64.3 % of Negative Control,96.0
Cc1ccc(COC(=O)c2ccc(C3Nc4ccccc4S(=O)(=O)N3)cc2)cc1 (stereo not shown) [compound 44117349],106.4 % of Negative Control,15.4
O=C(COC(=O)c1ccc(C2Nc3ccccc3S(=O)(=O)N2)cc1)Nc1cc(F)ccc1F (stereo not shown) [compound 44117394],105.4 % of Negative Control,9.7
Cl.Cl.OC(COc1cccc2ccccc12)CN1CCN(c2ccc(F)cc2)CC1 (stereo not shown) [compound 45283772],96.8 % of Negative Control,44.0
COc1ccc(CCNC(=O)c2cnn3c(-c4ccc(C)c(C)c4)ccnc23)cc1OC [compound 46074589],105.7 % of Negative Control,-4.7
Cc1ccc(Nc2ccc(N3CCN(C(=O)Cc4ccc(F)cc4)CC3)nn2)cc1 [compound 49671361],102.4 % of Negative Control,-10.5
Cc1noc(C)c1C(=O)N1CCN(c2ccc(-c3noc(C(C)C)n3)cn2)CC1 [compound 49701731],102.2 % of Negative Control,1.4
Cc1cccc(CC(=O)Nc2cc(C)ns2)c1 [compound 49722107],98.5 % of Negative Control,32.6
COc1ccc2nc(N3CCCC(C(=O)O)C3)sc2c1 (stereo not shown) [compound 53212169],105.4 % of Negative Control,-17.8
CC(C)c1nc(-c2ccc(N3CCN(C(=O)Cc4cn(C)c5ccccc45)CC3)nc2)no1 [compound 71780502],91.8 % of Negative Control,-2.9
Cc1cc(C(=O)N(CCc2cccs2)C2CC2)c(C)o1 [compound 71781394],103.1 % of Negative Control,95.6
CN(C)CCN(C(=O)c1c[nH]c2ccccc12)c1nc2ccc(OC(F)(F)F)cc2s1.Cl [compound 71782913],66.6 % of Negative Control,99.5
